These compounds were tested against Prothrombin (Homo sapiens) (UniProt P00734) (assay: Binding affinity for human alpha-thrombin).

| Structure (SMILES) | K ass |
| --- | --- |
| CCNc1cc(Cc2c(-c3ccc(OCCN4CCCC4)cc3)sc3ccccc23)ccc1OCCN1CCCC1 | 290000 l M-1 |
| O=[N+]([O-])c1cc(Cc2c(-c3ccc(OCCN4CCCC4)cc3)sc3ccccc23)ccc1OCCN1CCCC1 | 1.02e+07 l M-1 |
| CCCc1cc(Cc2c(-c3ccc(OCCN4CCCC4)cc3)sc3ccccc23)ccc1OCCN1CCCC1 | 1.02e+06 l M-1 |
| COc1cc(Cc2c(-c3ccc(OCCN4CCCC4)cc3)sc3ccccc23)ccc1OCCN1CCCC1 | 1.22e+07 l M-1 |
| Oc1cc(Cc2c(-c3ccc(OCCN4CCCC4)cc3)sc3ccccc23)ccc1OCCN1CCCC1 | 1.1e+06 l M-1 |
| FC(F)(F)c1cc(Cc2c(-c3ccc(OCCN4CCCC4)cc3)sc3ccccc23)ccc1OCCN1CCCC1 | 2.4e+06 l M-1 |
| Brc1cc(OCCN2CCCC2)ccc1Cc1c(-c2ccc(OCCN3CCCC3)cc2)sc2ccccc12 | 270000 l M-1 |
| Nc1cc(Cc2c(-c3ccc(OCCN4CCCC4)cc3)sc3ccccc23)ccc1OCCN1CCCC1 | 1.1e+06 l M-1 |
| Cc1cc(Cc2c(-c3ccc(OCCN4CCCC4)cc3)sc3ccccc23)ccc1OCCN1CCCC1 | 2.42e+07 l M-1 |
| CS(=O)(=O)Nc1cc(Cc2c(-c3ccc(OCCN4CCCC4)cc3)sc3ccccc23)ccc1OCCN1CCCC1 | 410000 l M-1 |
| Fc1cc(Cc2c(-c3ccc(OCCN4CCCC4)cc3)sc3ccccc23)ccc1OCCN1CCCC1 | 4.87e+06 l M-1 |
| CCc1cc(Cc2c(-c3ccc(OCCN4CCCC4)cc3)sc3ccccc23)ccc1OCCN1CCCC1 | 7.27e+06 l M-1 |
| O=S(=O)(Nc1cc(Cc2c(-c3ccc(OCCN4CCCC4)cc3)sc3ccccc23)ccc1OCCN1CCCC1)c1ccccc1 | 220000 l M-1 |
| CC(=O)Nc1cc(Cc2c(-c3ccc(OCCN4CCCC4)cc3)sc3ccccc23)ccc1OCCN1CCCC1 | 310000 l M-1 |
| Brc1cc(Cc2c(-c3ccc(OCCN4CCCC4)cc3)sc3ccccc23)ccc1OCCN1CCCC1 | 2.75e+07 l M-1 |
| CCCCc1cc(Cc2c(-c3ccc(OCCN4CCCC4)cc3)sc3ccccc23)ccc1OCCN1CCCC1 | 420000 l M-1 |

From ChEMBL document CHEMBL1130966, “Dibasic benzo[b]thiophene derivatives as a novel class of active site directed thrombin inhibitors. 2. Exploring interactions at the proximal (S2) binding site” (Bioorg Med Chem Lett, 1998)
